In US20020137929A1, “1 - (3-heterocyclylphenyl) isothiourea, -isourea, -guanidine and -amidine herbicidal agents” (Intellectual Property Department, BASF Aktiengesellschaft, priority 1998, published 2002):

Assays:
ABUTH (Velvetleaf) = assay: Postemergence herbicidal evaluation; format: in vivo, Abutilon theophrasti; conditions: postemergence
How it was run: (§1)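 Scores (0–9) reflect plant stand, vigor, malformation, size, chlorosis and general appearance relative to control, read 4 to 5 weeks after treatment and averaged where tests were repeated. Application: about 0.0156–0.500 kg/ha sprayed at 40 psi onto two-week seedlings.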

[1] = system: IPOHE (Morningglory, Ivyleaf); assay: Postemergence herbicidal evaluation; format: in vivo, Ipomoea hederacea; conditions: postemergence
How it was run: as §1

[2] = system: TRZAWR (Wheat, Winter, cv Riband); assay: Postemergence herbicidal evaluation; format: in vivo, Triticum aestivum; conditions: postemergence
How it was run: as §1

[3] = system: CHEAL (Lambsquarters, Common); assay: Preemergence herbicidal evaluation; format: in vivo, Chenopodium album; conditions: rated 4-5 weeks after treatment
From the text: (§2) Results of herbicide evaluation are expressed on a rating scale (0-9). The scale is based upon a visual observation of plant stand, vigor, malformation, size, chlorosis and overall plant appearance as compared with a control.
(§3) The preemergence herbicidal activity of the test compounds of the present invention is exemplified by the following tests in which the seeds of a variety of monocotyledonous and dicotyledonous plants are separately mixed with potting soil and planted on top of approximately one inch of soil in separate pint cups. After planting, the cups are sprayed with the selected aqueous acetone solution containing test compound in sufficient quantity to provide the equivalent of about 0.0156 to 0.500 kg per hectare of test compound per cup. The treated cups are then placed on greenhouse benches, watered and cared for in accordance with conventional greenhouse procedures. From four to five weeks after treatment, the tests are terminated and each cup is examined and rated according to the rating system provided in Example 37.
(§4) The compounds evaluated are reported by compound number given in Example 37.

[4] = system: IPOHE (Morningglory, Ivyleaf); assay: Preemergence herbicidal evaluation; format: in vivo, Ipomoea hederacea; conditions: rated 4-5 weeks after treatment
From the text: as §2, §3, §4

ECHCG (Barnyardgrass) = assay: Preemergence herbicidal evaluation; format: in vivo, Echinochloa crus-galli; conditions: rated 4-5 weeks after treatment
From the text: as §2, §3, §4

SETVI (Foxtail, Green) = assay: Preemergence herbicidal evaluation; format: in vivo, Setaria viridis; conditions: rated 4-5 weeks after treatment
How it was run: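 Steps: mix seeds into potting soil; plant atop ~1 inch soil; spray compound in aqueous acetone (~0.0156-0.500 kg/ha equivalent); maintain in greenhouse with watering; rate visually 0-9 versus control at 4-5 weeks.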

ORYSAT (Rice, Tebonnet) = assay: Preemergence herbicidal evaluation; format: in vivo, Oryza sativa, (L.) Tebonnet; conditions: rated 4-5 weeks after treatment
From the text: as §2, §3, §4

[5] = system: TRZAWR (Wheat, Winter, cv Riband); assay: Preemergence herbicidal evaluation; format: in vivo, Triticum aestivum; conditions: rated 4-5 weeks after treatment
From the text: as §2, §3, §4

[6] = system: ECHORC (Watergrass (Calif.)); assay: Preemergence weed control under flooded paddy conditions; format: in vivo, Echinochloa oryzoides; conditions: rated 3-4 weeks after treatment
How it was run: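 Herbicidal effect is scored visually on a 0-9 scale against an untreated control, three to four weeks after compounds are pipetted into the flood water (1.5 to 3 cm deep) over seeds planted in silt loam at 0.5 cm depth. Rates: about 0.0313 to 0.500 kg/ha.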

MOOVA (Monochoria) = assay: as above; format: in vivo, Monochoria vaginalis; conditions: rated 3-4 weeks after treatment
How it was run: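 Silt loam, seeds in top 0.5 cm; flood held 1.5-3 cm; test cpd as acetone/water 50/50 into flood water, ~0.0313-0.500 kg/ha a.i.; greenhouse 3-4 wk; visual 0-9 score vs control.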

Cn1c(C(F)(F)F)cc(=O)n(-c2cc(N=C3SCC(=O)N3CC(=O)OCC3CCCCC3)c(Cl)cc2F)c1=O [Compound 123, Cyclohexylmethyl 2-{{2-chloro-5-[3,6-dihydro-3-methyl-2,6-dioxo-4-(trifluoromethyl)-1(2H)-pyrimidinyl]-4-fluorophenyl}imino}-4-oxo-3-thiazolidineacetate]
Herbicidal rating ABUTH (ABUTH (Velvetleaf); rate 0.0156 kg/ha): 9.0
Herbicidal rating ABUTH (ABUTH (Velvetleaf); rate 0.0313 kg/ha): 9.0
Herbicidal rating ABUTH (ABUTH (Velvetleaf); rate 0.0625 kg/ha): 9.0
Herbicidal rating ABUTH (ABUTH (Velvetleaf); rate 0.1250 kg/ha): 9.0
Herbicidal rating IPOHE ([1]; rate 0.0156 kg/ha): 9.0
Herbicidal rating IPOHE ([1]; rate 0.0313 kg/ha): 9.0
Herbicidal rating IPOHE ([1]; rate 0.0625 kg/ha): 9.0
Herbicidal rating IPOHE ([1]; rate 0.1250 kg/ha): 9.0
Herbicidal rating TRZAWR ([2]; rate 0.0156 kg/ha): 4.0
Herbicidal rating TRZAWR ([2]; rate 0.0313 kg/ha): 4.5
Herbicidal rating TRZAWR ([2]; rate 0.0625 kg/ha): 6.0
Herbicidal rating TRZAWR ([2]; rate 0.1250 kg/ha): 6.5
Preemergence herbicidal rating CHEAL ([3]; rate 0.0156 kg/ha): 9.0
Preemergence herbicidal rating CHEAL ([3]; rate 0.0313 kg/ha): 9.0
Preemergence herbicidal rating CHEAL ([3]; rate 0.0625 kg/ha): 9.0
Preemergence herbicidal rating CHEAL ([3]; rate 0.1250 kg/ha): 9.0
Preemergence herbicidal rating CHEAL ([3]; rate 0.2500 kg/ha): 9.0
Preemergence herbicidal rating CHEAL ([3]; rate 0.5000 kg/ha): 9.0
Preemergence herbicidal rating IPOHE ([4]; rate 0.0156 kg/ha): 0.0
Preemergence herbicidal rating IPOHE ([4]; rate 0.0313 kg/ha): 0.0
Preemergence herbicidal rating IPOHE ([4]; rate 0.0625 kg/ha): 0.0
Preemergence herbicidal rating IPOHE ([4]; rate 0.1250 kg/ha): 7.0
Preemergence herbicidal rating IPOHE ([4]; rate 0.2500 kg/ha): 9.0
Preemergence herbicidal rating IPOHE ([4]; rate 0.5000 kg/ha): 9.0
Preemergence herbicidal rating ECHCG (ECHCG (Barnyardgrass); rate 0.0156 kg/ha): 0.0
Preemergence herbicidal rating ECHCG (ECHCG (Barnyardgrass); rate 0.0313 kg/ha): 0.0
Preemergence herbicidal rating ECHCG (ECHCG (Barnyardgrass); rate 0.0625 kg/ha): 0.0
Preemergence herbicidal rating ECHCG (ECHCG (Barnyardgrass); rate 0.1250 kg/ha): 1.0
Preemergence herbicidal rating ECHCG (ECHCG (Barnyardgrass); rate 0.2500 kg/ha): 4.0
Preemergence herbicidal rating ECHCG (ECHCG (Barnyardgrass); rate 0.5000 kg/ha): 7.0
Preemergence herbicidal rating SETVI (SETVI (Foxtail, Green); rate 0.0156 kg/ha): 7.0
Preemergence herbicidal rating SETVI (SETVI (Foxtail, Green); rate 0.0313 kg/ha): 7.0
Preemergence herbicidal rating SETVI (SETVI (Foxtail, Green); rate 0.0625 kg/ha): 7.0
Preemergence herbicidal rating SETVI (SETVI (Foxtail, Green); rate 0.1250 kg/ha): 9.0
Preemergence herbicidal rating SETVI (SETVI (Foxtail, Green); rate 0.2500 kg/ha): 9.0
Preemergence herbicidal rating SETVI (SETVI (Foxtail, Green); rate 0.5000 kg/ha): 9.0
Preemergence herbicidal rating ORYSAT (ORYSAT (Rice, Tebonnet); rate 0.0156 kg/ha): 0.0
Preemergence herbicidal rating ORYSAT (ORYSAT (Rice, Tebonnet); rate 0.0313 kg/ha): 0.0
Preemergence herbicidal rating ORYSAT (ORYSAT (Rice, Tebonnet); rate 0.0625 kg/ha): 0.0
Preemergence herbicidal rating ORYSAT (ORYSAT (Rice, Tebonnet); rate 0.1250 kg/ha): 1.0
Preemergence herbicidal rating ORYSAT (ORYSAT (Rice, Tebonnet); rate 0.2500 kg/ha): 3.0
Preemergence herbicidal rating ORYSAT (ORYSAT (Rice, Tebonnet); rate 0.5000 kg/ha): 5.0
Preemergence herbicidal rating TRZAWR ([5]; rate 0.0156 kg/ha): 0.0
Preemergence herbicidal rating TRZAWR ([5]; rate 0.0313 kg/ha): 0.0
Preemergence herbicidal rating TRZAWR ([5]; rate 0.0625 kg/ha): 0.0
Preemergence herbicidal rating TRZAWR ([5]; rate 0.1250 kg/ha): 1.0
Preemergence herbicidal rating TRZAWR ([5]; rate 0.2500 kg/ha): 1.0
Preemergence herbicidal rating TRZAWR ([5]; rate 0.5000 kg/ha): 1.0
herbicidal effect rating, ECHORC ([6]; 0.0313 kg/ha): 7.0
herbicidal effect rating, ECHORC ([6]; 0.0625 kg/ha): 9.0
herbicidal effect rating, ECHORC ([6]; 0.1250 kg/ha): 9.0
herbicidal effect rating, ECHORC ([6]; 0.2500 kg/ha): 9.0
herbicidal effect rating, MOOVA (MOOVA (Monochoria); 0.0313 kg/ha): 6.0
herbicidal effect rating, MOOVA (MOOVA (Monochoria); 0.0625 kg/ha): 7.0
herbicidal effect rating, MOOVA (MOOVA (Monochoria); 0.1250 kg/ha): 9.0
herbicidal effect rating, MOOVA (MOOVA (Monochoria); 0.2500 kg/ha): 9.0

CCOC(=O)CN1C(=O)C(C(=O)OC)SC1=Nc1cc(-n2c(=O)cc(C(F)(F)F)n(C)c2=O)c(F)cc1Cl (stereo not drawn) [Compound 128, 5-Carboxy-2-{{2-chloro-5-[3,6-dihydro-3-methyl-2,6-dioxo-4-(trifluoromethyl)-1(2H)-pyrimidinyl]-4-fluorophenyl}imino}-4-oxo-3-thiazolidineacetic acid, 3-ethyl methyl ester]
Herbicidal rating ABUTH (ABUTH (Velvetleaf); rate 0.0156 kg/ha): 6.0
Herbicidal rating ABUTH (ABUTH (Velvetleaf); rate 0.0313 kg/ha): 9.0
Herbicidal rating ABUTH (ABUTH (Velvetleaf); rate 0.0625 kg/ha): 9.0
Herbicidal rating IPOHE ([1]; rate 0.0156 kg/ha): 9.0
Herbicidal rating IPOHE ([1]; rate 0.0313 kg/ha): 9.0
Herbicidal rating IPOHE ([1]; rate 0.0625 kg/ha): 9.0
Herbicidal rating TRZAWR ([2]; rate 0.0156 kg/ha): 2.0
Herbicidal rating TRZAWR ([2]; rate 0.0313 kg/ha): 3.0
Herbicidal rating TRZAWR ([2]; rate 0.0625 kg/ha): 3.5
Preemergence herbicidal rating CHEAL ([3]; rate 0.0156 kg/ha): 9.0
Preemergence herbicidal rating CHEAL ([3]; rate 0.0313 kg/ha): 7.0
Preemergence herbicidal rating CHEAL ([3]; rate 0.0625 kg/ha): 9.0
Preemergence herbicidal rating CHEAL ([3]; rate 0.1250 kg/ha): 9.0
Preemergence herbicidal rating CHEAL ([3]; rate 0.2500 kg/ha): 9.0
Preemergence herbicidal rating IPOHE ([4]; rate 0.0156 kg/ha): 0.0
Preemergence herbicidal rating IPOHE ([4]; rate 0.0313 kg/ha): 0.0
Preemergence herbicidal rating IPOHE ([4]; rate 0.0625 kg/ha): 4.0
Preemergence herbicidal rating IPOHE ([4]; rate 0.1250 kg/ha): 9.0
Preemergence herbicidal rating IPOHE ([4]; rate 0.2500 kg/ha): 7.0
Preemergence herbicidal rating ECHCG (ECHCG (Barnyardgrass); rate 0.0156 kg/ha): 0.0
Preemergence herbicidal rating ECHCG (ECHCG (Barnyardgrass); rate 0.0313 kg/ha): 0.0
Preemergence herbicidal rating ECHCG (ECHCG (Barnyardgrass); rate 0.0625 kg/ha): 0.0
Preemergence herbicidal rating ECHCG (ECHCG (Barnyardgrass); rate 0.1250 kg/ha): 0.0
Preemergence herbicidal rating ECHCG (ECHCG (Barnyardgrass); rate 0.2500 kg/ha): 2.0
Preemergence herbicidal rating SETVI (SETVI (Foxtail, Green); rate 0.0156 kg/ha): 0.0
Preemergence herbicidal rating SETVI (SETVI (Foxtail, Green); rate 0.0313 kg/ha): 1.0
Preemergence herbicidal rating SETVI (SETVI (Foxtail, Green); rate 0.1250 kg/ha): 1.0
Preemergence herbicidal rating SETVI (SETVI (Foxtail, Green); rate 0.2500 kg/ha): 7.0
Preemergence herbicidal rating ORYSAT (ORYSAT (Rice, Tebonnet); rate 0.0156 kg/ha): 0.0
Preemergence herbicidal rating ORYSAT (ORYSAT (Rice, Tebonnet); rate 0.0313 kg/ha): 0.0
Preemergence herbicidal rating ORYSAT (ORYSAT (Rice, Tebonnet); rate 0.0625 kg/ha): 0.0
Preemergence herbicidal rating ORYSAT (ORYSAT (Rice, Tebonnet); rate 0.1250 kg/ha): 0.0
Preemergence herbicidal rating ORYSAT (ORYSAT (Rice, Tebonnet); rate 0.2500 kg/ha): 0.0
Preemergence herbicidal rating TRZAWR ([5]; rate 0.0156 kg/ha): 0.0
Preemergence herbicidal rating TRZAWR ([5]; rate 0.0313 kg/ha): 0.0
Preemergence herbicidal rating TRZAWR ([5]; rate 0.0625 kg/ha): 0.0
Preemergence herbicidal rating TRZAWR ([5]; rate 0.1250 kg/ha): 0.0
Preemergence herbicidal rating TRZAWR ([5]; rate 0.2500 kg/ha): 0.0
herbicidal effect rating, ECHORC ([6]; 0.0313 kg/ha): 5.0
herbicidal effect rating, ECHORC ([6]; 0.0625 kg/ha): 7.0
herbicidal effect rating, ECHORC ([6]; 0.1250 kg/ha): 7.0
herbicidal effect rating, ECHORC ([6]; 0.2500 kg/ha): 9.0
herbicidal effect rating, MOOVA (MOOVA (Monochoria); 0.0313 kg/ha): 6.0
herbicidal effect rating, MOOVA (MOOVA (Monochoria); 0.0625 kg/ha): 7.0
herbicidal effect rating, MOOVA (MOOVA (Monochoria); 0.1250 kg/ha): 9.0
herbicidal effect rating, MOOVA (MOOVA (Monochoria); 0.2500 kg/ha): 9.0
